Biological target: MAPK14 (human) (UniProt Q16539)
Assay: Inhibition of MAPK14 Kinase Activity

Chain of MAPK14 (human) (Q16539 whole entry, looked up): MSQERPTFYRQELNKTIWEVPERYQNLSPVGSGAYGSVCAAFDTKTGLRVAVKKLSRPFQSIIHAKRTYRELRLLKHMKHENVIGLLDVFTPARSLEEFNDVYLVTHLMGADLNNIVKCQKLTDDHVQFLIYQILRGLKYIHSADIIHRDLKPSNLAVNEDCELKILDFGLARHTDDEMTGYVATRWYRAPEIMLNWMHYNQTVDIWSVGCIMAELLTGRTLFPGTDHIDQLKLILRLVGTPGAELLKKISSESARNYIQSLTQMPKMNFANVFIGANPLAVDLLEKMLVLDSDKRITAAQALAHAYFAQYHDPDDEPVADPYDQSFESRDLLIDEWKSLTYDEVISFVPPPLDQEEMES

SMILES | IC50 [µM]
O=C1CCC(Cc2ccc(F)cc2F)CN1c1c(Cl)ncc(CO)c1Cl (stereo unspecified) | ≤ 10
O=C1CCC(Oc2cc(F)cc(F)c2)CN1c1c(Cl)cccc1Cl (stereo unspecified) | ≤ 10
CC(C)(C)OC(=O)Nc1cc(Cl)c(N2CC(Cc3ccc(F)cc3F)CCC2=O)c(Cl)c1 (stereo unspecified) | ≤ 10
O=C1CCC(Cc2ccccc2)CN1c1c(F)cccc1F (stereo unspecified) | ≤ 10
Cc1ccc(SC2CCC(=O)N(c3c(Cl)csc3Cl)C2)c(C)c1 (stereo unspecified) | ≤ 10
Nc1cc(Cl)c(N2CC(Cc3ccccc3)CCC2=O)c(Cl)c1 (stereo unspecified) | ≤ 10
Cc1cc(C)cc(CC2CN(c3c(Cl)cccc3Cl)C(=O)CO2)c1 (stereo unspecified) | ≤ 10
O=C(NCc1ccccc1CC1CCC(=O)N(c2c(Cl)cccc2Cl)C1)NC1CCCCC1 (stereo unspecified) | ≤ 10
O=C1CCC(C(O)c2ccc(F)cc2F)CN1c1c(Cl)cccc1Cl (stereo unspecified) | ≤ 10
O=C(Cc1ccccc1)Nc1ccc(Cl)c(N2CC(Cc3ccc(F)cc3F)COC2=O)c1Cl (stereo unspecified) | ≤ 10
O=C1CSC(Cc2ccc(F)cc2F)CN1c1c(Cl)cc(CO)cc1Cl (stereo unspecified) | ≤ 10
Cc1cc(C)cc(SC2CCC(=O)N(C3C(Cl)CCCC3Cl)C2)c1 (stereo unspecified) | ≤ 10
CC(=O)Nc1sc(Cl)c(N2CC(Cc3ccc(F)cc3F)CCC2=O)c1Cl (stereo unspecified) | ≤ 10
O=C1CCC(Oc2ccc(F)cc2F)CN1c1c(Cl)cnc(CO)c1Cl (stereo unspecified) | ≤ 10
O=C1CCC(Sc2ccc(F)cc2F)CN1c1c(Cl)cc(CO)cc1Cl (stereo unspecified) | ≤ 10
CC(=O)Nc1cc(Cl)c(N2CC(Sc3ccc(F)cc3F)CCC2=O)c(Cl)n1 (stereo unspecified) | ≤ 10
Cc1ccc(SC2CCC(=O)N(C3C(Cl)CCCC3Cl)C2)c(C)c1 (stereo unspecified) | ≤ 10
CC(=O)NCc1ccccc1CC1CCC(=O)N(c2c(Cl)cccc2Cl)C1 (stereo unspecified) | ≤ 10
O=C1CCC(Sc2cc(Cl)cc(Cl)c2)CN1C1C(Cl)CCCC1Cl (stereo unspecified) | ≤ 10
O=C1CCC(C(=NO)c2ccc(F)cc2F)CN1c1c(Cl)cccc1Cl (stereo unspecified) | ≤ 10
O=C1CCC(Oc2ccc3ccccc3c2)CN1c1c(Cl)ccnc1Cl (stereo unspecified) | ≤ 10
Cc1ccc(CC2COC(=O)N(c3c(Cl)cccc3Cl)C2)cc1 (stereo unspecified) | ≤ 10
CC(C)(C)OC(=O)N[C@@H](CO)C(=O)Nc1cc(Cl)c(N2CC(Cc3ccc(F)cc3F)CCC2=O)c(Cl)c1 (stereo partly specified) | ≤ 10

SMILES | IC50 [µM]
O=C1CCC(Sc2ccc(Cl)cc2Cl)CN1c1c(Cl)cncc1Cl (stereo unspecified) | ≤ 10
O=C1CCC(Sc2ccc(Cl)cc2Cl)CN1c1c(Cl)csc1Cl (stereo unspecified) | ≤ 10
O=C1SCC(Cc2ccc(Cl)cc2Cl)CN1c1c(Cl)cccc1Cl (stereo unspecified) | ≤ 10
Cc1ccc(OC2CCC(=O)N(C3C(Cl)CCCC3Cl)C2)cc1 (stereo unspecified) | ≤ 10
Cc1ccccc1OC1CCC(=O)N(c2c(Cl)cncc2Cl)C1 (stereo unspecified) | ≤ 10
COCCOCOc1ccccc1CC1CCC(=O)N(c2c(C)cccc2C)C1 (stereo unspecified) | ≤ 10
O=C1CCC(Oc2cc(Cl)cc(Cl)c2)CN1c1c(Cl)cccc1Cl (stereo unspecified) | ≤ 10
O=C1CCC(Cc2ccccc2Cl)CN1c1c(Cl)ccnc1Cl (stereo unspecified) | ≤ 10
CC(=O)Nc1cc(Cl)c(N2CC(Cc3ccc(F)cc3F)COC2=O)c(Cl)c1 (stereo unspecified) | ≤ 10
COc1ccccc1CC1CCC(=O)N(C2C(Cl)CCCC2Cl)C1 (stereo unspecified) | ≤ 10
CC(=O)Nc1ccc(Cl)c(N2CC(Cc3ccc(F)cc3F)CCC2=O)c1Cl (stereo unspecified) | ≤ 10
O=C1CCC(Sc2ccc(Cl)cc2Cl)CN1c1c(Cl)cccc1Cl (stereo unspecified) | ≤ 10
Cc1ccc(OC2CCC(=O)N(c3c(Cl)cccc3Cl)C2)c(C)c1 (stereo unspecified) | ≤ 10
CN1CCN(Cc2cc(Cl)c(N3CC(Cc4ccc(F)cc4F)CCC3=O)c(Cl)c2)CC1 (stereo unspecified) | ≤ 10
CC(=O)Nc1cc(Cl)c(N2CC(Cc3ccc(F)cc3F)SCC2=O)c(Cl)c1 (stereo unspecified) | ≤ 10
O=C1CCC(Oc2ccc3ccccc3c2)CN1c1c(Cl)cccc1Cl (stereo unspecified) | ≤ 10
CC(=O)Nc1ccc(Cl)c(N2CC(Cc3ccc(F)cc3F)COC2=O)c1Cl (stereo unspecified) | ≤ 10
CNc1cc(Cl)c(N2CC(Sc3ccc(F)cc3F)CCC2=O)c(Cl)n1 (stereo unspecified) | ≤ 10
O=C1CCC(Cc2ccc3ccccc3c2)CN1c1c(Cl)csc1Cl (stereo unspecified) | ≤ 10
O=C1CCC(Cc2ccc(Cl)cc2)CN1c1c(Cl)cncc1Cl (stereo unspecified) | ≤ 10
Cc1ccc(OC2CCC(=O)N(c3c(Cl)cncc3Cl)C2)cc1 (stereo unspecified) | ≤ 10
O=C1NCC(Cc2ccc(Cl)cc2)CN1c1c(Cl)cccc1Cl (stereo unspecified) | ≤ 10
O=C1CCC(CCc2ccccc2)CN1c1c(Cl)cccc1Cl (stereo unspecified) | ≤ 10

SMILES | IC50 [µM]
Cc1ccc(CC2CCC(=O)N(c3c(Cl)ccnc3Cl)C2)cc1 (stereo unspecified) | ≤ 10
CC(=O)Nc1cc(Cl)c(N2CC(Cc3ccc(F)cc3F)CCC2=O)c(Cl)n1 (stereo unspecified) | ≤ 10
O=C1CCC(Cc2cccc3ccccc23)CN1c1c(Cl)cncc1Cl (stereo unspecified) | ≤ 10
CN(C)NC(=O)CNc1cc(Cl)c(N2CC(Cc3ccc(F)cc3F)CCC2=O)c(Cl)c1 (stereo unspecified) | ≤ 10
O=C1CSC(Cc2ccccc2Cl)CN1c1c(Cl)cccc1Cl (stereo unspecified) | ≤ 10
O=C1CSC(Cc2ccc(F)cc2)CN1c1c(Cl)cccc1Cl (stereo unspecified) | ≤ 10
Cc1ccccc1SC1CCC(=O)N(c2c(Cl)cccc2Cl)C1 (stereo unspecified) | ≤ 10
O=C1CCC(Cc2ccc(F)cc2F)CN1c1c(Cl)cc(NCCO)cc1Cl (stereo unspecified) | ≤ 10
CCOC(=O)CCC(=O)Nc1cc(Cl)c(N2CC(Cc3ccc(F)cc3F)CCC2=O)c(Cl)c1 (stereo unspecified) | ≤ 10
O=C(CNc1cc(Cl)c(N2CC(Cc3ccc(F)cc3F)CCC2=O)c(Cl)c1)NCCO (stereo unspecified) | ≤ 10
O=C(Cc1ccccc1)Nc1cc(Cl)c(N2CC(Cc3ccc(F)cc3F)SCC2=O)c(Cl)c1 (stereo unspecified) | ≤ 10
COc1ccc(CC2CN(C)C(=O)N(c3c(Cl)cccc3Cl)C2)cc1 (stereo unspecified) | ≤ 10
Cc1ccccc1CC1CSC(=O)N(c2c(Cl)cccc2Cl)C1 (stereo unspecified) | ≤ 10
CC(=O)Nc1cnc(Cl)c(N2CC(Oc3ccc(F)cc3F)CCC2=O)c1Cl (stereo unspecified) | ≤ 10
CN1CC(Cc2ccc(F)cc2F)CN(c2c(Cl)cc(N)cc2Cl)C1=O (stereo unspecified) | ≤ 10
O=C(Cc1ccccc1)NC1CC(Cl)C(N2CC(Sc3ccc(F)cc3F)CCC2=O)C(Cl)C1 (stereo unspecified) | ≤ 10
Cc1ccc(CC2CCC(=O)N(C3C(Cl)CCCC3Cl)C2)c(C)c1 (stereo unspecified) | ≤ 10
CCOC(=O)CN(C(=O)OC(C)(C)C)c1cc(Cl)c(N2CC(Cc3ccc(F)cc3F)CCC2=O)c(Cl)c1 (stereo unspecified) | ≤ 10
O=C1CCC(Oc2cccc3ccccc23)CN1c1c(Cl)cccc1Cl (stereo unspecified) | ≤ 10
O=C1CCC(Cc2ccccc2)CN1c1c(Cl)csc1Cl (stereo unspecified) | ≤ 10
O=C1CCC(Cc2ccc(Cl)cc2Cl)CN1c1c(Cl)csc1Cl (stereo unspecified) | ≤ 10
Cc1ccccc1CC1CN(c2c(Cl)cccc2Cl)C(=O)CS1 (stereo unspecified) | ≤ 10
CC(c1ccc(F)cc1F)C1CCC(=O)N(c2c(Cl)cccc2Cl)C1 (stereo unspecified) | ≤ 10

SMILES | IC50 [µM]
CC(=O)N(C)c1cc(Cl)c(N2CC(Cc3ccc(F)cc3F)CCC2=O)c(Cl)c1 (stereo unspecified) | ≤ 10
O=C1CCC(Cc2ccccc2)CN1c1c(Cl)cncc1Cl (stereo unspecified) | ≤ 10
CC(=O)NC1CCC(Cl)C(N2CC(Sc3ccc(F)cc3F)CCC2=O)C1Cl (stereo unspecified) | ≤ 10
CNc1ccc(Cl)c(N2CC(Cc3ccc(F)cc3F)CNC2=O)c1Cl (stereo unspecified) | ≤ 10
Cc1cc(Br)cc(C)c1N1CC(Cc2ccc(F)cc2F)CCC1=O (stereo unspecified) | ≤ 10
Cc1cc(C(=O)NCCN(C)C)cc(C)c1N1CC(Cc2ccc(F)cc2F)CCC1=O (stereo unspecified) | ≤ 10
Cc1ccc(OC2CCC(=O)N(c3c(Cl)cncc3Cl)C2)c(C)c1 (stereo unspecified) | ≤ 10
O=C1CCC(Oc2ccccc2Cl)CN1c1c(Cl)cccc1Cl (stereo unspecified) | ≤ 10
Cc1cccc(C)c1N1CC(Cc2ccc(F)cc2F)CCC1=O (stereo unspecified) | ≤ 10
CNc1ccc(Cl)c(N2CC(Cc3ccc(F)cc3F)CCC2=O)c1Cl (stereo unspecified) | ≤ 10
O=C(Cc1ccccc1)Nc1ccc(Cl)c(N2CC(Cc3ccc(F)cc3F)SCC2=O)c1Cl (stereo unspecified) | ≤ 10
Cc1cccc(C)c1N1C[C@H](Cc2ccc(F)cc2F)C[C@H](C)C1=O | ≤ 10
O=C1CCC(Oc2ccc(F)cc2F)CN1C1C(Cl)CCC(CO)C1Cl (stereo unspecified) | ≤ 10
O=C1CCC(Cc2cc(F)cc(F)c2)CN1c1c(Cl)cccc1Cl (stereo unspecified) | ≤ 10
N[C@@H](CO)C(=O)Nc1cc(Cl)c(N2CC(Cc3ccc(F)cc3F)CCC2=O)c(Cl)c1 (stereo partly specified) | ≤ 10
O=C(Cc1ccccc1)Nc1sc(Cl)c(N2CC(Sc3ccc(F)cc3F)CCC2=O)c1Cl (stereo unspecified) | ≤ 10
CN1CC(Cc2ccc(F)cc2F)CN(c2c(Cl)ccc(CO)c2Cl)C1=O (stereo unspecified) | ≤ 10
COC(=O)/C=C/c1cc(C)c(N2CC(Cc3ccc(F)cc3F)CCC2=O)c(C)c1 (stereo unspecified) | ≤ 10
CS(=O)(=O)N1CCC(Nc2cc(Cl)c(N3CC(Cc4ccc(F)cc4F)CCC3=O)c(Cl)c2)CC1 (stereo unspecified) | ≤ 10
CN1CC(Cc2ccc(F)cc2F)CN(c2c(Cl)cc(CO)cc2Cl)C1=O (stereo unspecified) | ≤ 10
O=C1CCC(Sc2ccc(F)cc2)CN1C1C(Cl)CCCC1Cl (stereo unspecified) | ≤ 10
CC(=O)Nc1ccc(Cl)c(N2CC(Cc3ccc(F)cc3F)CCC2=O)c1 (stereo unspecified) | ≤ 10
CC(C)(C)OC(=O)N(CCNC(N)=O)c1cc(Cl)c(N2CC(Cc3ccc(F)cc3F)CCC2=O)c(Cl)c1 (stereo unspecified) | ≤ 10

SMILES | IC50 [µM]
O=C1CCC(Sc2ccccc2)CN1c1c(Cl)cncc1Cl (stereo unspecified) | ≤ 10
O=C1CCC(Sc2ccc(F)cc2F)CN1c1c(Cl)ccc(O)c1Cl (stereo unspecified) | ≤ 10
O=C(Cc1ccccc1)Nc1cc(Cl)c(N2CC(Cc3ccc(F)cc3F)CCC2=O)c(Cl)c1 (stereo unspecified) | ≤ 10
O=C1CCC(C(O)c2ccc(F)cc2F)CN1c1c(Cl)cc(Br)cc1Cl (stereo unspecified) | ≤ 10
Cc1cc(C)cc(CC2CCC(=O)N(c3c(Cl)csc3Cl)C2)c1 (stereo unspecified) | ≤ 10
Cc1ccc(CC2CN(c3c(Cl)cccc3Cl)C(=O)CS2)c(C)c1 (stereo unspecified) | ≤ 10
O=C1CCC(Oc2ccc(F)cc2F)CN1c1c(Cl)csc1Cl (stereo unspecified) | ≤ 10
O=C1OCC(Cc2ccc3ccccc3c2)CN1c1c(Cl)cccc1Cl (stereo unspecified) | ≤ 10
O=C(Nc1ccc(CC2CCC(=O)N(c3c(Cl)cccc3Cl)C2)cc1)C1CCCCC1 (stereo unspecified) | ≤ 10
O=C1CCC(Cc2ccc(F)cc2)CN1c1c(Cl)ccnc1Cl (stereo unspecified) | ≤ 10
O=C1CCC(Cc2ccc(F)cc2F)CN1C1C(Cl)CCCC1Cl (stereo unspecified) | ≤ 10
Cc1cc(C)cc(OC2CCC(=O)N(C3C(Cl)CCCC3Cl)C2)c1 (stereo unspecified) | ≤ 10
CNc1cnc(Cl)c(N2CC(Oc3ccc(F)cc3F)CCC2=O)c1Cl (stereo unspecified) | ≤ 10
O=C(CCCO)Nc1cc(Cl)c(N2CC(Cc3ccc(F)cc3F)CCC2=O)c(Cl)c1 (stereo unspecified) | ≤ 10
Nc1ccc(Cl)c(N2CC(Cc3ccc(F)cc3F)CSC2=O)c1Cl (stereo unspecified) | ≤ 10
O=C1CSC(Cc2ccc(F)cc2F)CN1c1c(Cl)cc(O)cc1Cl (stereo unspecified) | ≤ 10
O=C1CCC(Sc2ccc(F)cc2F)CN1c1c(Cl)cnc(CO)c1Cl (stereo unspecified) | ≤ 10
O=C1COC(Cc2ccc(F)cc2F)CN1c1c(Cl)cc(O)cc1Cl (stereo unspecified) | ≤ 10
Cc1cc(C)cc(OC2CCC(=O)N(c3c(Cl)csc3Cl)C2)c1 (stereo unspecified) | ≤ 10

— the Kinase Knowledgebase extract (Sharma et al. 2016)
